What was measured:
[1] = test system: CNS; assay: NCI SRB cytotoxicity, CNS cancer panel; assay type: cell-based, human; details: average of six to eight different cancer cell lines; for Log10 LC50: 50% lethality
Experimental: (§1) Biological Activity: The in vitro biological activity studies were carried out at the National Cancer Institute, Maryland, USA.
(§2) The C8-linked isoxazoline-PBD hybrids have been tested against sixty human tumour cell lines derived from nine cancer types (leukemia, non-small cell lung cancer, colon cancer, CNS cancer, melanoma, ovarian cancer, renal cancer, prostate cancer and breast cancer) as per NCI protocol. For each compound, dose response curves for individual cell lines have been measured at a minimum of five concentrations at 10 fold dilutions. A protocol of 48 hrs continuous drug exposure has been used, and a sulforhodamine B (SRB) protein assay was used to estimate cell viability or growth. The concentration for 50% cell growth inhibition (GI50), total cell growth inhibition (TGI, 0% growth) and 50% cell death (LC50, […]) compared with the control has been calculated (FIG. 2).
(§3) Compound 5b and 9b have been evaluated for in vitro cytotoxicity in sixty cell lines from nine human cancer types of lung (Hop-62, NCI-H226, NCI-H522), leukemia (K-562, SR), colon (HCT-116, HCT-15, HCC-2998), CNS(SF-539), melanoma (SK-MEL-5, UACC-62, M14), ovarian (IGROV1), renal (A498), prostate (PC3) breast (BT-549, MDA-MB-435, HS578T) origin. The results are expressed as percent of cell growth determined relative to that of untreated control cells (Table 1).

[2] = test system: A498; assay: NCI SRB cytotoxicity, A498 (renal); assay type: cell-based, human; details: 48 hrs exposure
Experimental: as §1, §2, §3

COc1cc(C2=NOC(c3cc(OC)c(OC)c(OC)c3)C2)ccc1OCCCCOc1cc2c(cc1OC)C(=O)N1CCC[C@H]1C=N2 (stereo partly drawn) [Compound 5b, (11aS)-7-(methyloxy)-8-(4-[(2-(methyloxy)-4-5-[3,4,5-tri(methyloxy)phenyl]-4,5-dihydro-3-isoxazolylphenyl)oxy]butyloxy)-2,3,5,11a-tetrahydro-1H benzo[e]pyrrolo[1,2-a][1,4]diazepin-5-one]
Log10 LC50 [1]: −5.18 mol/L
Log10GI50 [1]: −6.51 mol/L

COc1ccc(C2CC(c3ccc(OC)c(OC)c3OC)=NO2)cc1OCCCCOc1cc2c(cc1OC)C(=O)N1CCC[C@H]1C=N2 (stereo partly drawn) [Compound 9b, (11aS)-7-(methyloxy)-8-(4-[(2-(methyloxy)-5-3-[2,3,4-tri(methyloxy)phenyl]-4,5-dihydro-5-isoxazolylphenyl)oxy]butyloxy)-2,3,5,11a-tetrahydro-1H-benzo[e]pyrrolo[1,2-a][1,4]diazepin-5-one]
Log10 LC50 [1]: −5.05 mol/L
Log10GI50 [1]: −5.74 mol/L
GI50 [2]: 1720 nM

— patent US8372831B2, “Isoxazoline linked pyrrolo[2,1-c][1,4]benzodiazepine hybrids as potential anticancer agents and the process for preparation thereof” (Council of Scientific & Industrial Research, priority 2008, dated 2013)
